Results taken from the supplement of paper PMC13380429.
± gives the standard deviation of the averaged measurements.

Tests used:
Details in all cases: 72 h
[1] = tested on: U2OS; experiment: cell viability relative to DMSO; higher = less toxic
[2] = tested on: Calu-3; experiment: as above
[3] = tested on: Caco-2; experiment: as above
[4] = tested on: Vero E6; experiment: as above
[5] = tested on: HepG2; experiment: as above
[6] = tested on: U2OS; experiment: drug sensitivity score (DSS) for viability; higher = more toxic; extreme values may be limits of the assay
[7] = tested on: Calu-3; experiment: as above
[8] = tested on: Caco-2; experiment: as above
[9] = tested on: Vero E6; experiment: as above
[10] = tested on: HepG2; experiment: as above
[11] = tested on: U2OS; experiment: relative viability EC50 (midpoint between 100% and the lowest measured viability); higher = less toxic
[12] = tested on: Calu-3; experiment: as above
[13] = tested on: Caco-2; experiment: as above
[14] = tested on: Vero E6; experiment: as above
[15] = tested on: HepG2; experiment: as above

Structure (SMILES)	cell viability ([1]; 1 nM)	cell viability ([1]; 10 nM)	cell viability ([1]; 100 nM)	cell viability ([1]; 1000 nM)	cell viability ([1]; 10000 nM)	cell viability ([2]; 1 nM)	cell viability ([2]; 10 nM)	cell viability ([2]; 100 nM)	cell viability ([2]; 1000 nM)	cell viability ([2]; 10000 nM)	cell viability ([3]; 1 nM)	cell viability ([3]; 10 nM)	cell viability ([3]; 100 nM)	cell viability ([3]; 1000 nM)	cell viability ([3]; 10000 nM)	cell viability ([4]; 1 nM)	cell viability ([4]; 10 nM)	cell viability ([4]; 100 nM)	cell viability ([4]; 1000 nM)	cell viability ([4]; 10000 nM)	cell viability ([5]; 1 nM)	cell viability ([5]; 10 nM)	cell viability ([5]; 100 nM)	cell viability ([5]; 1000 nM)	cell viability ([5]; 10000 nM)	drug sensitivity score [6]	drug sensitivity score [7]	drug sensitivity score [8]	drug sensitivity score [9]	drug sensitivity score [10]	relative viability EC50 [11]	relative viability EC50 [12]	relative viability EC50 [13]	relative viability EC50 [14]	relative viability EC50 [15]
CCc1cc2c(c(CC)n1)CCC(=O)N2Cc1ccc(-c2ccccc2-c2nnn[nH]2)cc1 [ZD-7155]	96.2%	97.4%	102%	99.3%	101%	111%	99.8%	97%	95.3%	94.7%	97.5%	86.9%	91.5%	96.8%	109%	92.5%	96.2%	91.6%	97.1%	102%	86.1%	97.8%	91.1%	99.6%	102%	0	0	0	0	0	> 10 µM	> 10 µM	> 10 µM	> 10 µM	> 10 µM
CCN(c1ccccc1)c1cc(=NC)n(C)c(C)n1 [ZD-7288]	97.4%	97.6%	103%	98.7%	96%	106%	101%	91.8%	103%	96.9%	103%	102%	113%	101%	97.3%	108%	103%	99.3%	102%	99%	98.1%	109%	99.4%	102%	93.5%	0	0	0	0	0	> 10 µM	> 10 µM	> 10 µM	> 10 µM	> 10 µM
CC(=O)NCCCCCC(=O)O [acexamic-acid]	96.8%	104%	96.3%	104%	100%	98.9%	89.2%	94.9%	114%	102%	108%	99.2%	98.3%	108%	103%	99.4%	99.1%	101%	99.3%	102%	93%	105%	99.1%	93.7%	107%	0	0	0	0	0	> 10 µM	> 10 µM	> 10 µM	> 10 µM	> 10 µM
CC(C)(C)NCC(O)c1ccc(O)c(CO)c1 (stereo not given) [albuterol]	101 ± 2.5%	98.5 ± 4%	97 ± 2.5%	97.6 ± 3.7%	96.2 ± 2.9%	98.2 ± 3.3%	97.2 ± 3.8%	96.2 ± 6.6%	103 ± 6%	103 ± 9.1%	101 ± 2%	101 ± 14%	90.9 ± 2.3%	96.3 ± 1.5%	102 ± 7.1%	106 ± 2.5%	94.8 ± 5.2%	99.5 ± 3%	97.8 ± 0.42%	101 ± 3.8%	108 ± 2.9%	96.1 ± 2.7%	98.5 ± 15%	100 ± 14%	91.6 ± 11%	0	0	0	0	0.55 ± 0.78	> 10 µM	> 10 µM	> 10 µM	> 10 µM	> 10 µM
Nc1ccc(C(=O)O)c(O)c1 [aminosalicylate]	92.5%	101%	96.4%	104%	93.8%	96.5%	101%	107%	98.9%	99.3%	95.7%	115%	105%	116%	104%	95.5%	98.5%	104%	104%	95.3%	92.6%	102%	99.7%	81.1%	102%	0	0	0	0	0	> 10 µM	> 10 µM	> 10 µM	> 10 µM	> 10 µM
Clc1ccc([C@]23CNC[C@H]2C3)cc1Cl [amitifadine]	100%	97.6%	103%	98.4%	104%	106%	90.7%	101%	105%	97.9%	99.2%	92%	103%	87.3%	95.8%	101%	105%	100%	103%	99%	89.5%	104%	98.2%	98.6%	94.9%	0	0	0	0	0	> 10 µM	> 10 µM	> 10 µM	> 10 µM	> 10 µM
CCOc1cc([C@@H](CS(C)(=O)=O)N2C(=O)c3cccc(NC(C)=O)c3C2=O)ccc1OC [apremilast]	93.1%	101%	97.8%	92.7%	99.1%	102%	108%	89.8%	99.9%	108%	93.4%	100%	98.8%	97.3%	106%	104%	104%	98.7%	99.6%	99.6%	102%	95%	101%	84.1%	100%	0	0	0	0	0	> 10 µM	> 10 µM	> 10 µM	> 10 µM	> 10 µM
